Laboratory results: publication PMC10539361, “Allosteric modulation of the fish taste receptor type 1 (T1R) family by the extracellular chloride ion” (Scientific Reports, 2023)

Tests used:
hT1R2/hT1R3 = biological target: T1, hT1R2/hT1R3 (Homo sapiens, UniProt Q7RTX0+Q8TE23); assay: Effect of anions, cations and osmotic pressure on cellular responses, cells in 10 mM Cl- buffer, hT1R2/hT1R3; type: cell-based; details: for cellular response to the salt alone: without agonist, cells in 10 mM Cl- buffer
T1 construct: expressed in transfected cells
T1 sequence (Q8TE23 20-839): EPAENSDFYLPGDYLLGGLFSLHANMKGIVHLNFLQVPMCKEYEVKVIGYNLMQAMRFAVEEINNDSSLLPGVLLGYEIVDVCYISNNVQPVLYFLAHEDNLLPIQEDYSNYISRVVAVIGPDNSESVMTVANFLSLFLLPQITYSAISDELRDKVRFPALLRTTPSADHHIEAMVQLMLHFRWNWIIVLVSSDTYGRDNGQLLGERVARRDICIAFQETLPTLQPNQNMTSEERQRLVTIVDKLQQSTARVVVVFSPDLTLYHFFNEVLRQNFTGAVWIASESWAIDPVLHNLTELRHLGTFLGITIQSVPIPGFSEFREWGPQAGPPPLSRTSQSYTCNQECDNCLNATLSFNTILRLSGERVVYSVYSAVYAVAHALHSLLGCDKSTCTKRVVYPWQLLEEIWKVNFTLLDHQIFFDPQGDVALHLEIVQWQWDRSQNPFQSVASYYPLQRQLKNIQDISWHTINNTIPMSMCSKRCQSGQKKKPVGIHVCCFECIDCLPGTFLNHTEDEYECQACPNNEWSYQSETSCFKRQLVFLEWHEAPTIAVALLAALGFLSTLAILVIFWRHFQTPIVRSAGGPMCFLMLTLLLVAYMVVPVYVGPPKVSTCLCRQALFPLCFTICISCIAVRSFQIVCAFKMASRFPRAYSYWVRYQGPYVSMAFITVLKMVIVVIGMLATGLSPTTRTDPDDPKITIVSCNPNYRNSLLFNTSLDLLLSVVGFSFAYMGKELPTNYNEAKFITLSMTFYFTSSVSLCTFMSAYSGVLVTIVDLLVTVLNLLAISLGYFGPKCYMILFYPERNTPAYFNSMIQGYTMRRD
T1 sequence (Q7RTX0 21-852): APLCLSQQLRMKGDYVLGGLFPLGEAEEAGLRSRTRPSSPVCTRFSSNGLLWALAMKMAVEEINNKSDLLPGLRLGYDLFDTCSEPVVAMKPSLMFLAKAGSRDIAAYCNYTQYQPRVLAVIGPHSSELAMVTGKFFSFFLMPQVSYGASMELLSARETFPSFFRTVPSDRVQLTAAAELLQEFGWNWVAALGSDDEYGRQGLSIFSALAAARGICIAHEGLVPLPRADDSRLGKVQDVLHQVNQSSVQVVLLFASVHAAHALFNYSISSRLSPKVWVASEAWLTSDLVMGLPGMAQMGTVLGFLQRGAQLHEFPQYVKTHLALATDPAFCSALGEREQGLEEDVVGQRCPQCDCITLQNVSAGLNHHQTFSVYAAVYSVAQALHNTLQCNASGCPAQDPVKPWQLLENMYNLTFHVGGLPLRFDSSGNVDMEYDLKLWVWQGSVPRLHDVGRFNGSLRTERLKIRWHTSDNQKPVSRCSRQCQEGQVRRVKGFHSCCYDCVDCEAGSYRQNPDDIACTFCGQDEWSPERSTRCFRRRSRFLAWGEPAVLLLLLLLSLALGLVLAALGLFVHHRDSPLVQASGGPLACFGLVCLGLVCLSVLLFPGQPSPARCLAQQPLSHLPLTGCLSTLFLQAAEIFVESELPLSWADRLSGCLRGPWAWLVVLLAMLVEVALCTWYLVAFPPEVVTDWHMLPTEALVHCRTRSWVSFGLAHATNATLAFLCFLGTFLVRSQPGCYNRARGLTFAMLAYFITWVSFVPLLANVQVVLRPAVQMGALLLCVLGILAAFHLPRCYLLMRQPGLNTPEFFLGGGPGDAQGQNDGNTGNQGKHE
Description: Cells were seeded in 96-well plates coated with ε-poly-L-lysine at approximately 70,000 cells per well. […] Fluorescence changes were monitored at 2 s intervals, as described above. […] Three independent experiments were conducted for each receptor, and representative results are shown as the mean ± SEM (n = 3 replicates). Statistical tests were conducted using KyPlot version 6.0 (KyensLab Inc., Tokyo, Japan). Statistical significance was set at p < 0.05.

mfT1R2b/mfT1R3 T105E = mfT1R2b/mfT1R3 T105E (Oryzias latipes, UniProt Q2MHK2+Q2MHK4, Q2MHK2:T105E); assay: cell-based; details: EC50, [Cl-]o=10 mM; unit inferred
Chain of mfT1R2b/mfT1R3 T105E (Q2MHK2 entry or part of it T105E): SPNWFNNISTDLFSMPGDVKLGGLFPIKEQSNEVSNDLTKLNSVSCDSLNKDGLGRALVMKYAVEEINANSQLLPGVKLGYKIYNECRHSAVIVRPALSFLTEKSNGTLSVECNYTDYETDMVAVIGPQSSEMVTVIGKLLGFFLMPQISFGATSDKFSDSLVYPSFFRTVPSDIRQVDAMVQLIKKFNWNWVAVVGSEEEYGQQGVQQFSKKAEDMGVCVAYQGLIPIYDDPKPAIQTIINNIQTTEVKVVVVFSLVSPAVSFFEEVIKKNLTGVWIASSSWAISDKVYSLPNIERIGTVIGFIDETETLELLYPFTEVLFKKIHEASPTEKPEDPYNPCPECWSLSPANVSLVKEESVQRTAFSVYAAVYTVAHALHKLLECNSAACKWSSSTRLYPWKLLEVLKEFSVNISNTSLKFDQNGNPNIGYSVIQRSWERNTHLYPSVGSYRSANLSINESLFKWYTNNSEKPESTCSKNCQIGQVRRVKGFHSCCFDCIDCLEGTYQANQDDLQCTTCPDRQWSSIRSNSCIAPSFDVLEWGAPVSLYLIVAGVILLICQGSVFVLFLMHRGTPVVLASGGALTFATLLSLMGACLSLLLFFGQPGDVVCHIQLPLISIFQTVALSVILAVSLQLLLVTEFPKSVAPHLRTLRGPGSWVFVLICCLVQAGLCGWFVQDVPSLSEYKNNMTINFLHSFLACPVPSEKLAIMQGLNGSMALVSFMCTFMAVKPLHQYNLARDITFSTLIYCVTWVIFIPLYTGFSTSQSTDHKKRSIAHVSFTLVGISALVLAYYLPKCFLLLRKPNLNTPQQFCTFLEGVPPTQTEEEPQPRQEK
Chain of mfT1R2b/mfT1R3 T105E (Q2MHK4 entry or part of it): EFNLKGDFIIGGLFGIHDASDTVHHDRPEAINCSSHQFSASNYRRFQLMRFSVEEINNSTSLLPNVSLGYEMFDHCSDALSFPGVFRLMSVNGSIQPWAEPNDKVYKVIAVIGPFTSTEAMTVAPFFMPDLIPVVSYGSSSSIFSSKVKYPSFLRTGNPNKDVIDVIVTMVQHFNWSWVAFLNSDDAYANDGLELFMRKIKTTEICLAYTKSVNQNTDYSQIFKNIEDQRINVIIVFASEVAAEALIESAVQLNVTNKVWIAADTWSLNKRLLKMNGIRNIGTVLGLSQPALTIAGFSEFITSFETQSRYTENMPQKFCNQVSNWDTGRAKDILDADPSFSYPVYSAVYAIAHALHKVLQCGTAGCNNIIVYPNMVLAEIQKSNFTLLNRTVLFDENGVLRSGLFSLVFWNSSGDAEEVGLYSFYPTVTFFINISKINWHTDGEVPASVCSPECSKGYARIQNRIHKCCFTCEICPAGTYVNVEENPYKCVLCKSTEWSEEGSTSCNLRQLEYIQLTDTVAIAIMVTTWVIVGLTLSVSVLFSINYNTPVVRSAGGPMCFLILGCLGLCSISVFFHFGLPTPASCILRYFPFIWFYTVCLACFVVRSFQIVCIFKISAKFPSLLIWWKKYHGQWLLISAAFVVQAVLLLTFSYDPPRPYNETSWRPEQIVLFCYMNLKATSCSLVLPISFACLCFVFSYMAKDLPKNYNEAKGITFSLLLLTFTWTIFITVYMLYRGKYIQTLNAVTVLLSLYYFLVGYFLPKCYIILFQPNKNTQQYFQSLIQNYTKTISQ
Description: The buffers with lower Cl^− were prepared by progressively replacing NaCl, KCl, CaCl2 and MgCl2 in the buffer with gluconate equivalents[20]. The pH was adjusted to 7.4 with NaOH. Ligands were diluted with the assay buffers at the desired concentrations.
Measurements of the responses of the cells by cell-based assay based on the intracellular Ca^2+ mobilization were carried out as described previously with some modifications[20],[34],[46],[47]. Cell lines stably expressing T1R2, T1R3 and chimeric G-protein α-subunit, G16gust44[48], were constructed using the Flp-In pcDNA5/FRT complete system (Thermo Fisher Scientific, Waltham, MA, USA) described in our previous studies[34],[46]. […] Fluorescence changes (i.e., excitation at 485 nm and emission at 525 nm with a cutoff at 515 nm) were monitored at 2 s intervals. […] The response of each well was determined as ∆RFU (delta relative fluorescent units), which was calculated as (maximum fluorescent value)—(minimum fluorescent value). […] Dose‒response fitting curves were calculated by Prism 9 (GraphPad Software, San Diego, CA) using nonlinear regression (log(agonist) vs. response—variable slope), based on the integrated data from the several independent experiments.

Structure (SMILES)	cellular response to the salt alone (hT1R2/hT1R3)	response intensity to sucralose on coapplication of the salt at higher concentrations (hT1R2/hT1R3; coapplied with 150 µM sucralose, above 60 mM final [Cl-]o or equivalent osmotic pressure)	response intensity to sucralose on coapplication of the salt (hT1R2/hT1R3; coapplied with 150 µM sucralose, up to 60 mM [Cl-]o, compared to response at 10 mM [Cl-]o)	EC50 (mfT1R2b/mfT1R3 T105E) [mM]
O=C([O-])[C@H](O)[C@@H](O)[C@H](O)[C@H](O)CO.[Na+] [Na-gluconate, sodium gluconate]	neither NaCl nor Na-gluconate alone elicited cellular responses			
[Cl-].[Na+] [NaCl]	neither NaCl nor Na-gluconate alone elicited cellular responses	decreased	no significant difference	
C[C@H](N)C(=O)O [L-Ala, L-alanine]				11.4
